The values that follow come from patent US20020068274A1, “Novel method for assessing recoding in vitro and in vivo” (priority 2000, published 2002).

Test [1] concerns the target Ova257-264-specific B3Z hybridoma. Briefly: β-galactosidase-based T hybridoma stimulation assay. Also noted: species or system mouse. The following applies: L-Kb cells infected with rVV at 10 pfu/cell or pulsed with peptide 10^-9 M; FIGS. 4, 5. The text has this: FIG. 4. The TK frameshifting element directs expression and in vitro presentation of Ova257-264 that has been shifted to RF+1. The TK frameshifting element was inserted into the SphI site of NP/Ova257-264, shifiting all downstream NP/Ova257-264-encoding sequence, including Ova257-264, into RF+1 (TK-FS). Negative and positive control TK sequences (TK-NC, and TK-IF respectively) were also inserted. L-K^b cells were infected overnight with rVVs expressing these three constructs, along with a negative control VV (VV-NC). […]
Assays for epitope expression based upon use of the B3Z T hybridoma that produces β-galactosidase upon activation, have been described previously (Wherry, et al, J. Immunol 163, no. 7:3735, 1999). […] After overnight incubation, β-galactosidase production was assessed using the fluorogenic substrate methyl umbelliferone-βgalactoside as described by Sanderson and Shastri (Sanderson and N. Shastri, Internal Immunology 158:3227, 1997).
The frameshifting element derived from the mutant (TK-FS), as well as control sequences, in which the G run required for frameshifting was deleted (TK-NC), were tested following insertion into the SphI site of the NP/Ova257-264 construct (see FIG. 2) and recognition of Ova257-264 was monitored. […]

For test [2], the system named is transformed cell lines. The following applies: cited from earlier work.
The test system of test [3] is antizyme. The following applies: cited from earlier work.

Regarding “Ova257-264: synthetic version of the H-2Kb-restricted epitope within ovalbumin (ESIINFEK; UniProt P01012 257-264, looked up, fragment)”, in test [1], the “Kb/Ova257-264-specific recognition (β-galactosidase production by B3Z versus BWZ)” value is on record as “strong specific response”.

Turning to `N=C(N)NCCCCN` [agmatine], the “growth of transformed cell lines” value in test [2] is “growth inhibition of transformed cell lines”. In addition, the polyamine levels entry in test [3] was “lowered polyamine levels”. The antizyme expression entry in test [3] (via effect on +1 frameshifting) is on record as “capable of stimulating antizyme expression”.
